Results published in patent publication US7767716B2, “Acyl hydrazines as kinase inhibitors, in particular for SGK” (Merck Patent GmbH, priority 2005, dated 2010).

| Structure (SMILES) | melting point |
| --- | --- |
| CCc1c(C(=O)NNC(=O)Cc2cccc(O)c2)ccc(O)c1Cl [compound 84] | 259 °C |
| NC(=O)c1cc(C(=O)NNC(=O)Cc2cccc(O)c2)c(O)cc1O [compound 85] | 260 to 261 °C |
| N#Cc1cc(C(=O)NNC(=O)Cc2cccc(O)c2)c(O)cc1O [compound 86] | 258 °C |

The next lines start with the values.

| melting point | Structure (SMILES) |
| --- | --- |
| 240 °C | Cc1cc(C(=O)NNC(=O)Cc2cccc(O)c2)c(O)cc1O [compound 87] |
| 200 to 202 °C | O=C(Cc1cccc(O)c1)NNC(=O)c1cc(Cl)c(O)cc1C(F)(F)F [compound 88] |
